Reference: US20040029965A1, “Formulations for reducing or eliminating toxicity of enviromental hormones containing ursodeoxycholic acid” (priority 2000, published 2004)

How the values were obtained:
Format in all cases: in vivo
C57B1/6J mice [1] = assay: Blood (serum) biochemical changes in mice by a single subcutaneous injection of TCDD
Procedure: (§1) Male C57B1/6J mice of 5 weeks old having the average weight of 18-22 g which had been bred in CRJ (Charles River in Japan) were purchased and used in this example as experimental animals. Those mice were acclimated under the constant breeding condition, i.e. the temperature of 24±1° C., the humidity of 60±10% and the light and darkness cycle of 12 hours, for one week and thereafter, utilized in the experiment.
(§2) 2,3,7,8-tetrachlorodibenzo-p-dioxin (TCDD) dissolved in toluene (purity of 95% or more as a result of gas chromatography analysis), manufactured by Chem. Services Inc. in USA, was volatilized with nitrogen to obtain powder. The obtained powder was dissolved in a mixed solvent containing acetone and corn oil with a volume ratio of 1:6. The resulting solution each containing 110, 27.5 and 6.9 μg/kg of TCDD was subcutaneously injected to mice at a volume of 5 ml per body weight. […] The mice were supplied with the feed from 10 days before (pre-administration) to 60 days after administration of TCDD (post-administration).
Upon completion of the experiment for 60 days, the experimental animals were fasted for 24 hours and anesthetized with ether. Then, they were abdominally incised and blood was gathered from abdominal vena cava. They were sacrificed by the release of blood. Liver, kidneys, testes and epididymides were extracted and all the extracted organs were weighed. Only the testes were separately kept and observed under optical and electron microscopes. For biochemical finding test, serum was separated from blood with a centrifuge and the separated serum was analyzed with an automated blood biochemical analyzer, Dimension (Dupont, USA). Blood was put to another blood gathering bottle and then, analyzed with an automated blood cell analyzer, Celldyn (Abbott, USA).
(§3) The results are expressed as Mean±Standard Deviation values. For statistical analysis of the body weight, feed and water uptake, biochemical findings, hematological findings and the weight of organ in an acute toxicity test, verification was performed by one way analysis of variance (ANOVA) in case of equal distribution. In case significance was recognized in ANOVA, the Student's t-test was performed in the levels of p<0.05 and p<0.01.
For biochemical findings in the serum, the levels of glucose (GLU), GOT, GPT, Triglyceride (TG), high density lipoprotein (HDL-C), low density lipoprotein (LDL-C) and alkaline phosphatase (ALP) in serum were measured and the results are shown in the following.

C57B1/6J mice [2] = assay: Water uptake of mice after a single subcutaneous injection of TCDD; parameters: unit not given here
Procedure: as §1
(§4) The Experimental animals were supplied with Purina powdered feed (purchased from Hae Eun Trade) and supplied with water ad libitum. All the animals were weighed twice a week during experimentation.
as §2, §3

C57B1/6J mice [3] = assay: Changes in body weight of mice after a single subcutaneous injection of TCDD; settings: for Weight (body weight): at sacrifice
Procedure: as §1, §4, §2, §3

Clc1cc2c(cc1Cl)Oc1cc(Cl)c(Cl)cc1O2 [TCDD, 2,3,7,8-tetrachlorodibenzo-p-dioxin]
ALP (C57B1/6J mice [1]; TCDD 6.9 μg/kg alone): 69.67 ± 8.80 IU/l | GLU (C57B1/6J mice [1]; TCDD 6.9 μg/kg alone): 96.00 ± 15.15 mg/dL | GOT (C57B1/6J mice [1]; TCDD 6.9 μg/kg alone): 55.16 ± 6.65 IU/l | GPT (C57B1/6J mice [1]; TCDD 6.9 μg/kg alone): 21.66 ± 5.39 IU/l | HDL-C (C57B1/6J mice [1]; TCDD 6.9 μg/kg alone): 39.29 ± 9.38 mg/dL | LDL-C (C57B1/6J mice [1]; TCDD 6.9 μg/kg alone): 24.43 ± 11.81 mg/dL | TG (C57B1/6J mice [1]; TCDD 6.9 μg/kg alone): 76.14 ± 14.03 mg/dL | ALP (C57B1/6J mice [1]; TCDD 27.5 μg/kg alone): 65.4 ± 19.05 IU/l | GLU (C57B1/6J mice [1]; TCDD 27.5 μg/kg alone): 28.20 ± 8.23 mg/dL | GOT (C57B1/6J mice [1]; TCDD 27.5 μg/kg alone): 230.40 ± 72.90 IU/l | GPT (C57B1/6J mice [1]; TCDD 27.5 μg/kg alone): 70.4 ± 23.46 IU/l | HDL-C (C57B1/6J mice [1]; TCDD 27.5 μg/kg alone): 21.80 ± 6.76 mg/dL | LDL-C (C57B1/6J mice [1]; TCDD 27.5 μg/kg alone): 43.80 ± 14.99 mg/dL | TG (C57B1/6J mice [1]; TCDD 27.5 μg/kg alone): 92.67 ± 16.79 mg/dL | water uptake (C57B1/6J mice [2]; TCDD 6.9 μg/kg alone, 10 days): 4.23 ± 0.52 | water uptake (C57B1/6J mice [2]; TCDD 6.9 μg/kg alone, 20 days): 4.08 ± 0.72 | water uptake (C57B1/6J mice [2]; TCDD 6.9 μg/kg alone, 30 days): 4.70 ± 0.42 | water uptake (C57B1/6J mice [2]; TCDD 6.9 μg/kg alone, 40 days): 4.30 ± 0.42 | water uptake (C57B1/6J mice [2]; TCDD 6.9 μg/kg alone, 50 days): 4.72 ± 0.39 | water uptake (C57B1/6J mice [2]; TCDD 6.9 μg/kg alone, 60 days): 4.88 ± 0.17 | water uptake (C57B1/6J mice [2]; TCDD 27.5 μg/kg alone, 10 days): 3.38 ± 0.75 | water uptake (C57B1/6J mice [2]; TCDD 27.5 μg/kg alone, 20 days): 3.58 ± 0.14 | water uptake (C57B1/6J mice [2]; TCDD 27.5 μg/kg alone, 30 days): 3.10 ± 0.14 | water uptake (C57B1/6J mice [2]; TCDD 27.5 μg/kg alone, 40 days): 3.10 ± 0.14 | water uptake (C57B1/6J mice [2]; TCDD 27.5 μg/kg alone, 50 days): 2.89 ± 0.63 | water uptake (C57B1/6J mice [2]; TCDD 27.5 μg/kg alone, 60 days): 3.19 ± 0.21 | water uptake (C57B1/6J mice [2]; TCDD 110.0 μg/kg alone, 10 days): 3.27 ± 0.78 | water uptake (C57B1/6J mice [2]; TCDD 110.0 μg/kg alone, 20 days): 4.00 ± 0.66 | water uptake (C57B1/6J mice [2]; TCDD 110.0 μg/kg alone, 30 days): 4.70 ± 0.42 | body weight (C57B1/6J mice [3]; TCDD 6.9 μg/kg alone, 0 day): 20.22 ± 0.31 | body weight (C57B1/6J mice [3]; TCDD 6.9 μg/kg alone, 12 days): 22.27 ± 0.37 | body weight (C57B1/6J mice [3]; TCDD 6.9 μg/kg alone, 22 days): 23.68 ± 0.36 | body weight (C57B1/6J mice [3]; TCDD 6.9 μg/kg alone, 32 days): 24.37 ± 0.48 | body weight (C57B1/6J mice [3]; TCDD 6.9 μg/kg alone, 39 days): 25.35 ± 0.66 | body weight (C57B1/6J mice [3]; TCDD 6.9 μg/kg alone, 50 days): 27.03 ± 1.35 | body weight (C57B1/6J mice [3]; TCDD 6.9 μg/kg alone, 59 days): 25.98 ± 1.44 | Weight (body weight) (C57B1/6J mice [3]; TCDD 6.9 μg/kg alone): 22.96 ± 3.97 g | body weight (C57B1/6J mice [3]; TCDD 27.5 μg/kg alone, 0 day): 19.54 ± 0.22 | body weight (C57B1/6J mice [3]; TCDD 27.5 μg/kg alone, 12 days): 20.91 ± 0.52 | body weight (C57B1/6J mice [3]; TCDD 27.5 μg/kg alone, 22 days): 19.82 ± 1.14 | body weight (C57B1/6J mice [3]; TCDD 27.5 μg/kg alone, 32 days): 18.54 ± 1.16 | body weight (C57B1/6J mice [3]; TCDD 27.5 μg/kg alone, 39 days): 17.80 ± 1.40 | body weight (C57B1/6J mice [3]; TCDD 27.5 μg/kg alone, 50 days): 16.74 ± 1.22 | body weight (C57B1/6J mice [3]; TCDD 27.5 μg/kg alone, 59 days): 15.72 ± 1.17 | Weight (body weight) (C57B1/6J mice [3]; TCDD 27.5 μg/kg alone): 16.18 ± 2.51 g | body weight (C57B1/6J mice [3]; TCDD 110.0 μg/kg alone, 0 day): 19.36 ± 0.31 | body weight (C57B1/6J mice [3]; TCDD 110.0 μg/kg alone, 12 days): 19.96 ± 0.32 | body weight (C57B1/6J mice [3]; TCDD 110.0 μg/kg alone, 22 days): 20.02 ± 0.47 | body weight (C57B1/6J mice [3]; TCDD 110.0 μg/kg alone, 32 days): 19.84 ± 0.55 | body weight (C57B1/6J mice [3]; TCDD 110.0 μg/kg alone, 39 days): 17.62 ± 1.14
